Measured values from patent publication US20240075087A1, “COMPOSITIONS AND METHODS COMPRISING HEMP EXTRACT FOR THE TREATMENT OF ANIMALS IN NEED” (Portland Technology Holdings LLC, priority 2021, published 2024).
≈ marks a conversion by molar mass, not a printed value.

Assays:
Assay type in all cases: cell-based, canine
[1] = system: 17-71 B cell lymphoma cell line; experiment: 48 hours MTT proliferation assay, 17-71; conditions: pure compound
Description: (§1) 3-(4,5-Dimethylthaizol-2-yl)-2,5-diphenyltetrazolium bromide (MTT) assays are performed on all previously described cell lines; CMT12, HMPOS, D17, Abrams and 17-71. […] Cells are treated with vehicle (methanol or ethanol/DMSO mix) or various concentrations of the CBD, CBDA or CBD-rich hemp extract ranging from 0.42 to 20 μg/mL in serial dilution for 48 hours. MTT assays are performed after 48 hours of treatment by adding 20 μL of MTT dye ([…] filtered 5 mg/mL in phosphate-buffered saline [PBS]) to each well and incubating at 37° C. in 5% CO2 for 2 hours. The media is then aspirated, washed once with 200 μL of PBS and then solubilized in 200 μL of ethanol. Immediate analysis of the optical density of each well is performed using a spectrophotometric plate reader (Epoch; Biotek, Winooski, Vermont) at a wavelength of 570 nm as previously described (e.g., Vega-Avila E and Pugsley M K, An overview of colorimetric assay methods used to assess survival or proliferation of mammalian cells, Proc West Pharmacol Soc., 2011, 54, pp. 10-14 which is incorporated herein by reference in its entirety). The percent proliferating cells of control for each concentration is averaged and reported as a mean+/—SD from triplicate wells over three experiments.
(§2) For CBD, CBDA and hemp extract concentrations needed to obtain a 50% inhibition of cell proliferation (IC50) are then calculated across experiments by Probit analysis using XLFit5 software (IDBS, Guildford, United Kingdom) for reporting the results for each cell line.

[2] = system: D17 osteosarcoma cell line; experiment: 48 hours MTT proliferation assay, D17; conditions: pure compound
Description: as §1, §2

D17 cells [3] = experiment: Trypan blue exclusion assay, D17; conditions: 48 hours, vehicle control 5±1%
Description: The trypan blue exclusion assay is performed on canine primary dermal fibroblasts (CDF) because of the slow rate of proliferation and low metabolic activity of these normal canine cells, precluding productive MTT assays. The effects of CBD treatments are compared with the results obtained on the 17-71, CMT12 and D17 cell lines for comparative purposes. For the CDF cells, applied cell extracellular matrix (ABM) is applied overnight to 24-well tissue culture-treated plates (Applied Biological Materials [ABM], Richmond, BC, Canada). For all cell lines, cells are plated at a density of 5×10^3 cells per well and incubated until 60% confluent before treatment with methanol vehicle control, 3.75, 7.5, and 15 μg/mL of CBD to cells for 48 hours. Cells are then trypsinized, collected and centrifuged at 1900 g for 10 minutes. With the exception of the 17-71 cell line, cells are detached with Accumax (Invitrogen, Carlsbad, California). The cell pellet is resuspended in 0.1% trypan blue (Sigma Aldrich, St Louis, Missouri) in PBS solution, loaded on a Cell Countess disposable cell counting slide with automatic counting of all positively stained cells in the Countess II Cell Counter under identical settings for each cell line (Invitrogen; ThermoFisher Scientific, Carlsbad, California) using the same parameters for each cell line. All treatments are performed in triplicate and the percent of viable cells are averaged.

17-71 cell line = experiment: Annexin V-FITC apoptosis assay, 17-71; conditions: 15 μg/mL CBD, VC 10.1±0.4%
Description: (§3) Apoptosis after 4 and 8 hours treatment is measured using Annexin-V staining (Invitrogen Annexin V-FITC staining kit, Carlsbad, California). Briefly, cells are detached with Accumax (Innovative Cell Technologies, San Diego, California), collected and centrifuged for 10 m at 1000 g at 4° C. The pellet is washed once with PBS before resuspension in Annexin Binding Buffer (ABB; 10 mM HEPES, 140 mM NaCl, 2.5 mM CaCl2, pH 7.4) at a density of approximately 1×10^6 cell/mL. […] After the incubation, ABB is added to the cell suspension and kept on ice until fluorescence is measured with the BD FACScalibur flow cytometer using an argon laser (BD Biosciences, Ashland, Oregon). Ten thousand events are collected per sample. Analysis is performed with the FlowJo software (Version 10.7.1. Becton, Dickinson, Ashland, Oregon) by first gating based on the forward- and side-scatter characteristics for each cell line followed by Annexin V-FITC positive cells. Negative fluorescence controls are unstained cells. Three independent replicates are examined for each treatment.

D17 cells [4] = experiment: Annexin V-FITC apoptosis assay, D17; conditions: 15 μg/mL CBD, 4 hours, VC 6.5±0.6%
Description: as §3

## C=C(C)[C@@H]1CCC(C)=C[C@H]1c1c(O)cc(CCCCC)cc1O [CBD, cannabidiol]
[1]; Canis lupus familiaris, B-cell, read-out: IC50 (Probit)
  IC50: 2.5 µg/mL (≈ 7.95 µM)
[1]; P<0.05
  concentrations that significantly diminished proliferation vs vehicle control: ≥ 2.5 µg/mL
[2]; Canis lupus familiaris, read-out: IC50 (Probit)
  IC50: 4.1 µg/mL (≈ 13 µM)
[2]; P<0.05
  concentrations that significantly diminished proliferation vs vehicle control: ≥ 5 µg/mL
D17 cells [3]; 3.75 μg/mL CBD
  percent trypan blue positive cells: 4±2%
D17 cells [3]; 7.5 μg/mL CBD
  percent trypan blue positive cells: 5±2%
D17 cells [3]; 15 μg/mL CBD
  percent trypan blue positive cells: 35±4%
17-71 cell line; 4 hours
  Annexin V positive staining cells: 31.0±10.8%
17-71 cell line; 8 hours
  Annexin V positive staining cells: 79.0±6.1%
D17 cells [4]
  Annexin V positive staining cells: 9.4±1.8%
